In patent US20060264443A1, “Treatment of rheumatoid arthritis” (priority 2002, published 2006):
Where two headings read alike, the source gives them in different places.

Assays:
[1] = tested on: patient with severe RA
[2] = tested on: patients with active severe rheumatoid arthritis; conditions: for Serum C-reactive protein: normal reference range <10 mg/l; for Rheumatoid factor: normal reference range <14 IU/ml
Experimental: If grade 3 or 4 toxicity occurs at the dose of 200 mg/day, the patient is removed from the study.
On each visit complete physical check up is performed (including blood pressure, pulse, body weight) and the following parameters will be assessed:
The oral glucocorticoid dose is required to be 15 mg or less of prednisone or equivalent.
A dose-escalation scheme is used. The starting dose is 200 mg per day for 2 weeks given as one 100 mg capsule taken in the morning and another in the afternoon.
The injected joints were omitted from efficacy analyses.
The primary efficacy measures were: change in the number of tender and swollen joints among the 66 diarthrodial joints, patient assessed pain and disease activity as estimated using the visual analogue scales (VAS), change in the blood erythrocyte sedimentation rate (ESR) and the serum C-reactive protein (CRP) level, and change in the health assessment questionnaire (HAQ) score. […] Serum CRP and blood ESR are measured prior to the study and on the study weeks 2, 4, 8, and 12.

joint pain reported by all patients ([2]; first week of treatment, subsided below baseline during second study week): increased joint pain
SMILES: CS(=O)(=O)O.Cc1ccc(NC(=O)c2ccc(CN3CCN(C)CC3)cc2)cc1Nc1nccc(-c2cccnc2)n1 [SALT I]
RA status ([1]; January 2003, 400 mg daily, prior RA medication discontinued): still in remission
occasional macroscopic hematuria (RA-associated glomerulonephritis) ([1]; Jun. 14, 2001): had ceased
patient-reported RA condition ([1]; Jun. 14, 2001, 400 mg/day, prednisone reduced to 5 mg o.d.): further subjective improvement of their RA
RA status ([1]; September 2001): still in remission
RA condition ([1]; after 2 and 5 months of treatment, with prednisone 5 mg/day): further major improvements
patient-reported general condition ([1]; after several days, with prednisone 5 mg/day, 600 mg then 400 mg/day orally): improved joint motility and decrease of wrist swelling
patient-reported RA condition ([1]; control visit April 17, 600 mg/day for nine days, pause, then 400 mg/day from April 11): improved joint motility and decreased swelling particularly in the wrists
anti-rheumatic effect, duration ([2]; 2 patients who completed the 12-week study): sustained during the study period
outcome measures during SALT I therapy (overall) ([2]; 3 patients, 200 to 400 mg/day, up to 12 weeks): All outcome measures improved
HAQ ([2]; Patient 1, week 8, baseline 1.75): 1.5
Serum C-reactive protein ([2]; Patient 1, week 8, baseline 10): 11 mg/L
Erythrocyte sedimentation rate ([2]; Patient 1, week 8, baseline 38): 23 mm/h
Patient-assessed disease activity (VAS) ([2]; Patient 1, week 8, baseline 77): 39 mm
Pain (VAS) ([2]; Patient 1, week 8, baseline 79): 42 mm
Rheumatoid factor ([2]; Patient 1, week 8, baseline 197): 65 IU/ml
HAQ ([2]; Patient 2, week 12, baseline 1.75): 0.75
Serum C-reactive protein ([2]; Patient 2, week 12, baseline 36): 12 mg/L
Pain (VAS) ([2]; Patient 2, week 12, baseline 77): 26 mm
Patient-assessed disease activity (VAS) ([2]; Patient 2, week 12, baseline 96): 35 mm
Rheumatoid factor ([2]; Patient 2, week 12, baseline 501): 270 IU/ml
Erythrocyte sedimentation rate ([2]; Patient 2, week 12, no baseline value): 13 mm/h
HAQ ([2]; Patient 3, week 12, baseline 1.5): 1.1
Erythrocyte sedimentation rate ([2]; Patient 3, week 12, baseline 28): 12 mm/h
Pain (VAS) ([2]; Patient 3, week 12, baseline 37): 22 mm
Serum C-reactive protein ([2]; Patient 3, week 12, baseline 42): 10 mg/L
Patient-assessed disease activity (VAS) ([2]; Patient 3, week 12, baseline 69): 23 mm
Morning stiffness ([2]; Patient no. 1, during the study, from 45 min): none
blood erythrocyte sedimentation rate ([2]; Patient no. 3, 24 weeks): 17 mm/h
duration of the morning stiffness ([2]; Patient no. 3, 24 weeks): 30 min
serum CRP level ([2]; Patient no. 3, 24 weeks): 9 mg/L
serum rheumatoid factor level ([2]; Patient no. 3, 24 weeks): 139 IU/ml
number of swollen joints ([2]; Patient no. 3, 24 weeks, 400 mg o.d.): 15
Morning stiffness ([2]; Patient no. 3, during the study (12 weeks), from 180 min): 75 min
response of rheumatoid arthritis to treatment ([2]; all 3 patients): responded favorably
